In ChEMBL document CHEMBL1201862, “PubChem BioAssay data set” (2004):
Calls of active or inactive are those of the source.

Columns and labels:
[1] = system: Streptococcus sp. 'group A'; assay: growth inhibition of control SK(-) GAS strain, dose response, counter-screen for streptokinase expression inhibitor project, luminescence, kanamycin, BacTiterGlo, confirmation (AID 1900); assay type: functional, organism-based
[2] = system: Streptococcus; assay: Group A Streptococcus viability loss, dose response, counter-screen for streptokinase expression inhibitor project, luminescence, BacTiterGlo (AID 1915); assay type: functional, organism-based;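 also: potency for reduction of bacterial viability or growth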
[3] = biological target: Cytochrome P450 2C19 (Homo sapiens, UniProt P33261); assay: Cytochrome panel assay with activity outcomes. Panel member name: p450-cyp2c19 Compounds with AC50 equal or less than 10 uM are considered active; assay type: functional
[4] = system: INS1; assay: beta cell apoptosis inhibitors, cytokine rescue, dose response, luminescence, retest (AID 449756); assay type: functional, cell-based; details: Rattus norvegicus;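 also: cell death triggered by IL-1 beta plus TNF-alpha plus IFN-gamma mixture; protective hits raise ATP signal compared with cytokine alone wells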
[5] = biological target: Cytochrome P450 2C9 (Homo sapiens, UniProt P11712)
[6] = biological target: Cytochrome P450 2D6 (Homo sapiens, UniProt P10635);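 also: CYP2D6 member of a cytochrome P450 panel assay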
[7] = inhibitors of intracellular T. cruzi replication, confirmation, NIH3T3 host cells, beta-gal luminescence (AID 2044); assay type: functional, cell-based;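 also: intracellular parasites grown in NIH/3T3 mouse fibroblasts as host cells; luminescent beta-galactosidase reporter signal from transgenic T. cruzi replicating inside host cells; inhibitors lower the luminescence signal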
[8] = cytotoxicity toward NIH3T3 fibroblasts, dose response, counter-screen, cell-based, ATP luminescence, mouse fibroblasts (AID 2010); assay type: functional;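 also: cells exposed to compound for about 90 hours before reading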
[9] = inhibitors of firefly luciferase expression or activity, dose response, H4 neuroglioma cells, luminescence (AID 1990); assay type: functional, cell-based
[10] = Luminescence Cell-Based Dose Response HTS to Identify Inhibitors of 5'UTR Stem-Loop Driven Prion Protein mRNA Translation in H4 Neuroglioblastoma Cells. [Related pubchem assays: 1827 (Project Summary), 1813 (Primary HTS)]; assay type: functional
[11] = inhibitors of SNCA 5'UTR-driven reporter translation, confirmation, H4 neuroglioma cells, luminescence (AID 1988); assay type: functional, cell-based

Chain of Cytochrome P450 2D6 (P10635 whole entry): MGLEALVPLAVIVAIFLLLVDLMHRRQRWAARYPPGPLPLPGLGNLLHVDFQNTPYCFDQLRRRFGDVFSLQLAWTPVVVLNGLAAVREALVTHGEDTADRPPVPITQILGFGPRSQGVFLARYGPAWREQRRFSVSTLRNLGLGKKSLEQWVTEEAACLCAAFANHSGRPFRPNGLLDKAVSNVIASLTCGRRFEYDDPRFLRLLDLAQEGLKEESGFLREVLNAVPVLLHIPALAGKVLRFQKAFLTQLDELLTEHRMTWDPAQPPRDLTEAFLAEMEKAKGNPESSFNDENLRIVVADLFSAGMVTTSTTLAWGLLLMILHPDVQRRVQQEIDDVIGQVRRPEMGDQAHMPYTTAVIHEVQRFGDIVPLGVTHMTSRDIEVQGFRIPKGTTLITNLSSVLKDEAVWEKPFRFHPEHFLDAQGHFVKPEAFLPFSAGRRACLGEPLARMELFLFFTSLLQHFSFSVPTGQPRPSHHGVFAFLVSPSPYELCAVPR
Chain of Cytochrome P450 2C19 (P33261 whole entry): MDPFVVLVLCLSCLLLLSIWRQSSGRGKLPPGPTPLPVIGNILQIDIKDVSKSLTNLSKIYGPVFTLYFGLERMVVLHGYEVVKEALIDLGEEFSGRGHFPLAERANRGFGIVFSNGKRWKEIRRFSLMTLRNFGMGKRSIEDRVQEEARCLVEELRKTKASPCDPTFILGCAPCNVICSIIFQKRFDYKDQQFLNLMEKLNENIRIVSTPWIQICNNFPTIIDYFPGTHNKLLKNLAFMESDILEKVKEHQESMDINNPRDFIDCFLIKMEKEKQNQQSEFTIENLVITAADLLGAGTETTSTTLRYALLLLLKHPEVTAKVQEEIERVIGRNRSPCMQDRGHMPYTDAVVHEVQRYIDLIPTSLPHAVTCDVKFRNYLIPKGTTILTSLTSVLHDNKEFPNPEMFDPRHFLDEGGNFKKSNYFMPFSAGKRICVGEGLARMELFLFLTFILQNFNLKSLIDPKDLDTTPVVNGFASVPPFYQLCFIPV
Chain of Cytochrome P450 2C9 (P11712 whole entry): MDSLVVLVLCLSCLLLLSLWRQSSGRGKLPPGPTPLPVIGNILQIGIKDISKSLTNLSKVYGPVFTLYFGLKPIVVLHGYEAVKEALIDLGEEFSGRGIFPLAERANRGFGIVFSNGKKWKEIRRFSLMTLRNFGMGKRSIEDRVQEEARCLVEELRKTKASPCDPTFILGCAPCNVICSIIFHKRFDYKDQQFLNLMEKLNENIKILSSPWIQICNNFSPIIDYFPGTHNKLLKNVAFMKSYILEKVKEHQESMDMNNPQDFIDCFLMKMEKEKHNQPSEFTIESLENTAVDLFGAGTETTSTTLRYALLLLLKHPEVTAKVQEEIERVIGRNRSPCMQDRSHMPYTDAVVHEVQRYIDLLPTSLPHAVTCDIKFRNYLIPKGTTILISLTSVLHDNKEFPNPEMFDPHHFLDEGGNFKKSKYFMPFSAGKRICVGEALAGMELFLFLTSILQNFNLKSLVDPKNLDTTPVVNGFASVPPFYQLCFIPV

Which results are given for `Cc1cc(C)n(-c2nc(NC(C)(C)C)nc(NC(C)(C)C)n2)n1`?
EC50 [1]: 0.694 µM (active); EC50 [2]: 1.72 µM (active); AC50 [3]: inconclusive; AC50 [4]: 3.14 µM (active); AC50 [5]: 8.91 µM (inconclusive)

With `CCCN(CCC)C(=S)NC(=O)c1ccc(Cl)cc1Cl` as the compound, how does the AC50 [6] read?
Its AC50 is 10 µM (inconclusive).

What does the source list for `CN1c2ccc([N+](=O)[O-])cc2N(C)C1(C)c1ccccc1` (stereo not given)?
EC50 [7]: 2.85 µM (active); EC50 [8]: > 60 µM (not active)

Which results are given for `Cc1ccccc1NC(=O)NCC1CCN(Cc2cccc(Cl)c2)CC1`?
EC50 [7]: 1.14 µM (active); EC50 [8]: > 30 µM (not active)

Which results are given for `COc1ccc(CNC(=O)C(C)Sc2nc3ccccc3c(=O)n2CCCN2CCOCC2)cc1` (stereo not given)?
EC50 [9]: 23.9 µM (active); EC50 [10]: > 120 µM (not active); EC50 [11]: > 120 µM (not active)

With `N#Cc1cccc(NC(=O)N2CCCC3(CCN(C(=O)c4ccncc4)CC3)C2)c1` as the compound, how does the AC50 [6] read?
Its AC50 is 25.1 µM (inconclusive).

With `O=C(N=Nc1c(O)[nH]c2ccc(Br)cc12)c1cc(-c2cccs2)nc2ccccc12` as the compound, how does the EC50 [9] read?
Its EC50 is > 120 µM (not active).

What about the EC50 [10] of the same compound?
The EC50 was 16.6 µM (active).

What about the EC50 [11] of the same compound?
The EC50 was 9.7 µM (active).

What about the EC50 [7] of the same compound?
The EC50 was 1.41 µM (active).

What about the EC50 [8] of the same compound?
The EC50 was > 60 µM (not active).

Which EC50 [9] does the source give for `COc1cc(C(=O)NCC(=O)N/N=C(C)\C=C\c2ccccc2)cc(OC)c1OC` here?
The EC50 was > 120 µM (not active).

What about the EC50 [10] of the same compound?
Its EC50 is 24.9 µM (active).

What about the EC50 [11] of the same compound?
The EC50 was > 120 µM (not active).

For `Cc1cc(C)cc(N(C(=O)C2CCCC2)C2C=CS(=O)(=O)C2)c1` (stereo not given), which AC50 ([3]; read-out: AC50) is on record?
Its AC50 is 17.8 µM (inconclusive).

What about the AC50 [5] of the same compound?
Its AC50 is 35.5 µM (inconclusive).

What does the source list for `CCN(CC)CC#CCC(O)(c1ccccc1)C1CCCC1` (stereo not given)?
EC50 [7]: 0.52 µM (active); EC50 [8]: > 60 µM (not active)

For `COC(=O)[C@@]1(Cc2ccc(F)cc2)[C@H]2c3cc(C(=O)N(C)C)n(CCCNc4ccc(C(F)(F)F)cc4Cl)c3C[C@H]2CN1C(=O)c1ccccc1`, which AC50 ([3]; read-out: AC50) is on record?
The AC50 was 25.1 µM (inconclusive).

For `COc1ccc(CN2CCCC(CO)(Cc3ccc(F)cc3)C2)cc1C` (stereo not given), which EC50 [7] is on record?
Its EC50 is 0.64 µM (active).

And the EC50 [8]?
Its EC50 is 9.58 µM (active).

With `CN(C)CCO[C@@H](c1ccc(Cl)cc1)c1ccccn1` [ROTOXAMINE] as the compound, how does the AC50 [3] read?
The AC50 was “inconclusive”.

What about the AC50 [6] of the same compound?
The AC50 was 12.6 µM (inconclusive).

With `Cc1cccc(N(C)S(=O)(=O)c2ccc3[nH]c(=O)c(=O)[nH]c3c2)c1` as the compound, how does the AC50 ([3]; read-out: AC50) read?
Its AC50 is 20 µM (inconclusive).

Which AC50 [6] does the source give for `Clc1ccccc1-c1nccc(NCCN2CCOCC2)n1` here?
The AC50 was 12.6 µM (inconclusive).

Which AC50 [4] does the source give for `Cc1cc(C)c2c(ccc3cccc[n+]32)c1.[O-][Cl+3]([O-])([O-])[O-]` here?
The AC50 was 4.61 µM (active).

For `CCN(CC)c1ccc2c(Cl)cc(=O)oc2c1`, which AC50 [5] is on record?
Its AC50 is 31.6 µM (inconclusive).

For `COc1cccc2c1OC1(C)CC2NC(=O)N1Cc1ccccc1` (stereo not given), which EC50 [9] is on record?
The EC50 was 21.6 µM (active).

And the EC50 [10]?
Its EC50 is 7.38 µM (active).

What about the EC50 [11] of the same compound?
The EC50 was 16.1 µM (active).

For `NC(=O)c1[nH]cnc1N`, which EC50 [7] is on record?
The EC50 was > 30 µM (not active).

What about the EC50 [8] of the same compound?
Its EC50 is 4.94 µM (active).

For `CS(=O)(=O)NCCSCc1c(Cl)cccc1Cl`, which EC50 [7] is on record?
Its EC50 is 36.9 µM (active).

What about the EC50 [8] of the same compound?
Its EC50 is > 60 µM (inconclusive).

With `Clc1ccccc1-c1nc(N2CCNCC2)c2ccccc2n1` as the compound, how does the AC50 [6] read?
Its AC50 is 31.6 µM (inconclusive).

Which AC50 [6] does the source give for `Cc1ccc(C(=O)Nc2cc3c(oc2=O)CCCC3=O)cc1` here?
Its AC50 is 0.01 µM (inconclusive).

Which results are given for `COc1ccc2[nH]c(C)c(CCN(Cc3cccs3)C(S)=Nc3ccc(F)cc3)c2c1`?
EC50 [7]: 4.21 µM (active); EC50 [8]: > 60 µM (not active)

Which results are given for `C/C(=N\Nc1nc(-c2ccccn2)nc2ccccc12)c1ccc(F)cc1`?
EC50 [9]: 9.76 µM (active); EC50 [10]: 3.74 µM (active); EC50 [11]: 8.26 µM (active); AC50 [4]: 41.9 µM (active)

What does the source list for `CCCn1c(-c2cccc([N+](=O)[O-])c2)nc2c1c(=O)[nH]c(=O)n2Cc1ccccc1`?
EC50 [9]: 17.5 µM (active); EC50 [10]: > 120 µM (not active); EC50 [11]: > 120 µM (not active)

With `COc1cccc(Nc2ncc3nc(-c4cccs4)c(=O)n(C[C@H]4CCCO4)c3n2)c1` as the compound, how does the AC50 [6] read?
Its AC50 is 15.8 µM (inconclusive).

With `CC(=O)NC(C)c1cc(Cl)c2cccnc2c1O` (stereo not given) as the compound, how does the AC50 [4] read?
Its AC50 is 4.08 µM (active).

Which AC50 [5] does the source give for `COc1ccc(OCCSc2nc[nH]n2)cc1` here?
Its AC50 is 22.4 µM (inconclusive).

Which EC50 [7] does the source give for `Cc1noc(/C=C/N(C)C)c1S(=O)(=O)N1CCCC(C(=O)NC2CCCCC2)C1` (stereo not given) here?
Its EC50 is 0.484 µM (active).

And the EC50 [8]?
The EC50 was 6.5 µM (active).

With `c1ccc(CCc2cccnc2)nc1` as the compound, how does the AC50 [6] read?
The AC50 was 7.94 µM (inconclusive).

Which AC50 [6] does the source give for `O=C(CCc1ccc(S(=O)(=O)NC2CCCCC2)cc1)N(Cc1ccccc1)Cc1ccccc1` here?
The AC50 was 12.6 µM (inconclusive).
